Measured values published in publication PMC12439166, “Dietary flavonoids form supramolecular assemblies, alter biochemistry, and enhance cell resilience” (Frontiers in Nutrition, 2025).

Molecular target: T1, Histone-Lysine N-methyltransferase (NSD2) (Homo sapiens, UniProt O96028)
T1 sequence (O96028 1-1365): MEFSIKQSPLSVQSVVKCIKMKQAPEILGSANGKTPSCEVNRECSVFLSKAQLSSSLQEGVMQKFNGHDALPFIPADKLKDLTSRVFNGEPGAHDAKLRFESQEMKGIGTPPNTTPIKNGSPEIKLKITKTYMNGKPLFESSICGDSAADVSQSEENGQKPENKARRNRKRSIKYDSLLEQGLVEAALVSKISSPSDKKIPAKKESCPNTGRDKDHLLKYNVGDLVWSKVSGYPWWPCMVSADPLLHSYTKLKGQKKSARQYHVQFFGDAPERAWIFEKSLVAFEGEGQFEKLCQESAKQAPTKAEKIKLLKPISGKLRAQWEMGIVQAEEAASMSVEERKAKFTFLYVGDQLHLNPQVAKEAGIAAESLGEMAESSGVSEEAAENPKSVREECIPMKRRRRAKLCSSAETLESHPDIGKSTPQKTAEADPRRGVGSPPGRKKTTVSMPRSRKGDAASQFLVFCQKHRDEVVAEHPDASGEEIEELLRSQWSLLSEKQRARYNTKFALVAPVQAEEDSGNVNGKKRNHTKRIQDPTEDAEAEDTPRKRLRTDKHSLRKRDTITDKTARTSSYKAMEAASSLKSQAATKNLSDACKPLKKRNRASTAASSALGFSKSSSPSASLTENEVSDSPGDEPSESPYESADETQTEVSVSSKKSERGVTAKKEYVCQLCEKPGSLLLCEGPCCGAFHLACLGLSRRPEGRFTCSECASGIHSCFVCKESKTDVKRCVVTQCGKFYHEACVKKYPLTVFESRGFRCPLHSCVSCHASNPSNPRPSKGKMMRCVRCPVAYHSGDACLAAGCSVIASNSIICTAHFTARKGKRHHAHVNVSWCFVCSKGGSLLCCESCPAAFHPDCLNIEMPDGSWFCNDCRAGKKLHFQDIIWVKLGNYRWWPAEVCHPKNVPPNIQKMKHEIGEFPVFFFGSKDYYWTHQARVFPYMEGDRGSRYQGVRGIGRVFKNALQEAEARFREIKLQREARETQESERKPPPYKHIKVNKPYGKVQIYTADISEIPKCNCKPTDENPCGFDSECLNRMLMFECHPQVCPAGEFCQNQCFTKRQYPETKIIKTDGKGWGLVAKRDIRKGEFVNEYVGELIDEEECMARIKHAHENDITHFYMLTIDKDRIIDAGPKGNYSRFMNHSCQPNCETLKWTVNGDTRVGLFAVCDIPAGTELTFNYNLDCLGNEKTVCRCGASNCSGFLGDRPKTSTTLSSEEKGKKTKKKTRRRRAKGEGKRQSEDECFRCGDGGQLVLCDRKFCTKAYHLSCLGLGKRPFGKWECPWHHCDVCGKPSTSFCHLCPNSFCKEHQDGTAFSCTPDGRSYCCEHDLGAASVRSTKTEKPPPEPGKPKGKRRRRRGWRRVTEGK
Assay: Enzyme activity assay (SAMDI-MS), NSD2
Type: biochemical
Conditions: 10 concentrations, 5 nM to 100 μM, compounds incubated with enzyme 30 min, result in words
Protocol: Enzyme screens were performed by SAMDI Tech (contract research organization); enzyme assays were performed in a 20 μL volume in 384-well low-volume polypropylene microtiter plates (Greiner Bio-One) at room temperature. The enzymes [Arginase 1 (ARG1), Lysine demethylase 4C (KDM4C), MAP/microtubule affinity-regulating kinase 4 (MARK4), Histone-Lysine N-methyltransferase (NSD2), Tyrosine-protein phosphatase non-receptor type 1 (PTP1B), and Sirtuin-3 (SIRT3)] were incubated with compounds for 30 min prior to initiation of the reaction by the addition of substrate and cofactors (if required). Reactions were quenched by the addition of 0.5% formic acid (final) with subsequent neutralization using 1% sodium bicarbonate (final). For SAMDI MS analysis, 2 μL of each reaction was transferred using a 384-channel automated liquid handler to SAMDI biochip arrays functionalized with a neutravidin-presenting self-assembled monolayer. The preparation of SAMDI biochip arrays has been previously described ([41], [42], [49]). The SAMDI arrays were incubated for 1 h in a humidified chamber to allow specific immobilization of the biotinylated substrates and products; they were then purified by washing with ultrafiltered water (50 μL/spot) and dried with compressed air. A matrix comprising α-Cyano-4-hydroxycinnamic acid in 80% acetonitrile: 20% aqueous ammonium citrate (10 mg/mL final) was applied in an automated format by dispensing 50 nL to each spot in the array. SAMDI MS was performed using reflector positive mode on an AB Sciex TOF-TOF 5800 System (AB Sciex, Framingham, MA) with 400 shots/spot analyzed in a random raster sampling. For data analysis, the area under the curves (AUCs) for the product peak and substrate peak were calculated using the TOF/TOF Series Explorer (AB Sciex), and the amount of product formed was calculated using the equation AUC product / (AUC product + AUC Substrate). Negative controls were pre-quenched with 0.5% formic acid (final). Lysozyme assay was performed using the manufacturer’s instructions (Biovision Lysozyme inhibitor screening kit K237). Flavonoids were acquired from Sigma-Aldrich and Seleckchem.
IC50 values of enzyme inhibition. Inhibition of the enzymes was measured at 10 concentration values in the range of 5 nM to 100 μM for each compound and enzyme, with two technical replicates; the percent inhibition values were determined by SAMDI software. Sigmoidal curves were fitted to the percent inhibition vs log10 (concentration) series, and IC50 values were determined at the crossing point of 50 % inhibition. Manual verification of the fits and the IC50 values was performed. The resulting IC50 values fell into the following categories: (a) within the assayed range of 5nM to 100μM (26 % of fits), (b) IC50 could be extrapolated, IC50 > 100μM (12 % of fits), or (c) fitting was not possible because all values were at baseline (62 % of fits). Compound efficacy ranking. First, for each IC50 value per compound and enzyme, a Z-score was calculated based on the log10 (IC50) value and that of the compounds that produced a successful readout for enzyme i , according to Equation 1: […]

| SMILES | inhibition of enzyme activity, NSD2 | inhibition of enzyme activity, NSD2 (listed as Quercetin) | inhibition of enzyme activity, NSD2 (listed as Quercitin) |
| --- | --- | --- | --- |
| O=c1c(O[C@@H]2O[C@H](CO)[C@@H](O)[C@H](O)[C@H]2O)c(-c2ccc(O)c(O)c2)oc2cc(O)cc(O)c12 [isoquercitrin] | blocked |  |  |
| C[C@@H]1O[C@@H](Oc2c(-c3ccc(O)c(O)c3)oc3cc(O)cc(O)c3c2=O)[C@H](O)[C@H](O)[C@H]1O [quercitrin] | blocked |  |  |
| O=c1c(O)c(-c2ccc(O)c(O)c2)oc2cc(O)cc(O)c12 [quercetin] | blocked | inhibited | concentration-dependent inhibition |
